Measured values as given in patent US10500169B2, “Supression of IgE production by compounds derived from traditional chinese medicine” (Sean N. Parker Foundation, priority 2014, dated 2019).

Legend:
human PBMCs = experiment: IgE production by PBMCs from food allergic patients stimulated with rIL-4 and anti-CD40 mAb, ELISA; type: cell-based; settings: 10 days
Description: PBMCs were isolated by Ficoll Hypaque (Pharmacia, Piscataway, N.J.) using density gradient centrifugation at 1800 RPM for 30 minutes, and washed 3 times in PBS. To determine the optimal stimulation of IgE production by PBMCs, PBMCs at 1.5×10^6 cells/mL were suspended in complete RPMI medium (200 μM L-glutamine, 1% penicillin/streptomycin, 25 mM HEPES, 10% heat inactivated fetal calf serum), and co-stimulated with human recombinant IL-4 (rIL-4) at 0.01 and 0.1 μg/mL (R&D Systems, Minneapolis, Minn., USA) and anti-CD40 monoclonal antibody (mAb) at […] (R&D) for 10 and 14 days. At the end of incubation, the supernatants were collected and IgE levels were analyzed using ELISA kit (Mabtech Inc, OH). Since PBMCs stimulated with 100 ng/mL rIL-4 and 1 μg/mL anti-CD40 mAb produced the highest level of IgE, we used this culture condition for the subsequent studies. PBMCs were stimulated with 100 ng/mL rIL-4 and 1 μg/mL anti-CD40 mAb and cultured in the presence or absence of 20 μg/mL of the two purified compounds for 10 days for screening active compounds, and at different concentrations (0.15, 0.31, 0.62, 1.25, 2.5, 5, 10 μg/mL) to examine dose responses for the effective compounds. IgE level was evaluated using ELISA. The percentage of IgE inhibition was calculated as follows: […]. In some cases if enough PBMCs were obtained, aliquots of PBMCs prepared from the same individuals were used for different experiments.

T-bet = experiment: RT-PCR gene expression in stimulated PBMCs: T-bet; type: cell-based, human; settings: 10 μg/mL
Description: Quantitative real time PCR was used to detect the epsilon germline transcription. Human PBMC cells (1.5×10^6 cells/mL) were co-incubated with DMF-C1 compound (10 μg/mL) at 37° C. under 5% CO2 for 4 days. Cells were then harvested and total RNA was isolated using Trizol reagent (Gibco BRL, Rockville, Md.) following the manufacturer's instructions. The RNA concentrations were then quantified by triplicate optical density (OD) readings (Bio-Rad SmartSpect 3000; Bio-Rad, Hercules, Calif.). The reverse transcription was performed to get the cDNA using ImProm-II™ Reverse Transcriptase (Promega Corporation, Madison, Wis.) as described by the manufacturer's instructions. The RT-PCR amplification was performed using Maxima™ SYBR Green qPCR Master Mix (2×) kit (Fisher Scientific, Pittsburgh, Pa.) with epsilon germline primers or GAPDH primers. The primer sequences were listed as εGLT forward: 5′-[…]-3′; εGLT reverse: 5′-[…]-3′; GAPDH-forward: 5′-[…]-3′; GAPDH-reverse: 5′-[…]-3′; STAT3-forward: 5′-[…]-3′; STAT3-reverse: 5′-[…]-3′; T-bet-forward: 5′-[…]-3′; T-bet-reverse: 5′-[…]-3′; IFN-γ-forward: 5′-[…]-3′; IFN-γ-reverse: 5′-[…]-3′; IL-10-forward: 5′-[…]-3′; IL-10-reverse: 5′-[…]-3′. IL-5-forward. 5′-[…] TGCA-3′; IL-5-reverse: 5′-[…]-3′. All primers were synthesized by Sigma-Aldrich Corporation (St. Louis, Mo.).

SMILES: COc1ccc2cc3[n+](cc2c1OC)CCc1cc2c(cc1-3)OCO2 [berberine]
- inhibition of IgE production by human PBMCs (human PBMCs; 20 μg/mL, rIL-4 100 ng/mL + anti-CD40 mAb 1 μg/mL): completely inhibited
- inhibition at 0.62 µg/mL (human PBMCs; Homo sapiens, PBMC, 240 h, 0.62 μg/mL, read-out: inhibition percentage of IgE production by PBMCs): 80.7 ± 9.24%
- IC50 (human PBMCs; Homo sapiens, PBMC, 240 h, rIL-4 + anti-CD40 mAb, read-out: IC50 of inhibition of IgE production by PBMCs): 0.2 µg/mL
- mRNA expression of T-bet (T-bet): significantly increased
